For one compound, Emax and EC50 results are on record in publication PMC10095932 (Molecules, 2023).

Where a SMILES comes first, the peptide text is derived from it. Bridges are numbered along the chain shown (N, C = ends).

The experiment concerns the target T1, human NPR-A (Homo sapiens, UniProt P16066).
T1 construct: expressed in transfected cells; host or cells: HEK 293 cells, transient, Lipofectamine 2000
T1 sequence (P16066 33-1061): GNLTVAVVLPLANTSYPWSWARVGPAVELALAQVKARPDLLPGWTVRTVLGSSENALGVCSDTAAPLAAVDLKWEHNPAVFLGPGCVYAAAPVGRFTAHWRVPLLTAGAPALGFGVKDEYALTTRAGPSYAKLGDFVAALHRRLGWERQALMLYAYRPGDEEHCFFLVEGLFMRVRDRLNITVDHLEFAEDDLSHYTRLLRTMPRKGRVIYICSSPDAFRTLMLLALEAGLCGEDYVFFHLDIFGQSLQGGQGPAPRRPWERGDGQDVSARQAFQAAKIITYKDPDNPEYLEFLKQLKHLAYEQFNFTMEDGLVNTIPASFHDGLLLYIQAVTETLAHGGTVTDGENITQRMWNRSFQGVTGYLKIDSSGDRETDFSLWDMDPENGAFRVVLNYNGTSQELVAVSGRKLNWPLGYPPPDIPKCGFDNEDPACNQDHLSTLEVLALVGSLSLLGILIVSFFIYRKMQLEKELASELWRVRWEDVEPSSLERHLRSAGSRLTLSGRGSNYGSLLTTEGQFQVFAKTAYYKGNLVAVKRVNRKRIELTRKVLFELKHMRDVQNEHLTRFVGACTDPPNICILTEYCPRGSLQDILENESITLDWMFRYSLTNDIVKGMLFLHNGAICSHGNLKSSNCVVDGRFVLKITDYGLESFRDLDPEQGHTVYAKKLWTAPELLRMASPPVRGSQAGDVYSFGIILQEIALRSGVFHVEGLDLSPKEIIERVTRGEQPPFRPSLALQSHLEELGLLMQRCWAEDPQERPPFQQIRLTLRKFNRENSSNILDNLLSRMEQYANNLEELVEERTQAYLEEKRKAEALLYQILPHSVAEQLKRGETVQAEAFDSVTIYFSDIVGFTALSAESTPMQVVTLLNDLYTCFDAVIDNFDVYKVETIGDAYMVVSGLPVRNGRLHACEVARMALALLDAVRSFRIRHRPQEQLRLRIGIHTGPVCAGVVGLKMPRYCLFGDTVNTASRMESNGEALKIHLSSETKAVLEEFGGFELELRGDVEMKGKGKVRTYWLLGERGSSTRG
Description: cGMP ALPHAscreen, cGMP production in HEK 293 cells transiently overexpressing hNPR-A. The conditions noted are these: HEK 293 cells overexpressing hNPR-A. The experiment is classed as cell-based. The method, then: Cells were cultured at 5% CO2 and 37 °C. HEK 293 cells were cultured in high glucose DMEM (Gibco, Carlsbad, CA, USA) supplemented with 10% FBS, and 1% penicillin/streptomycin. HEK 293 cells were seeded in media lacking penicillin/streptomycin 24 to 48 h pre-transfection. PC12 cells were cultured in high glucose DMEM (Gibco) supplemented with 10% FBS and 1% penicillin/streptomycin.
HEK 293 cells were transfected using the lipofectamine 2000 transfection protocol (Invitrogen). Cells (95% confluence) were transfected with 45% pcDNA3.1/hNPR-A, 45% pcDNA3.1, and 10% pEGFP-NI to the optimal DNA concentration specified in the protocol. The co-transfection with pEGFP-NI plasmid allowed the determination of the transfection efficiency. This was assessed by the estimation of the number of GFP-expressing cells using an Olympus IX70 inverted fluorescence microscope. Transfected cells were used for assay purposes within 24 h.
The cGMP ALPHAscreen was performed using the ALPHAscreen Protein A detection kit and the biotinylated cGMP supplement (Perkin Elmer, Waltham, MA, USA) with rabbit anti-cGMP polyclonal antibody (Biovision, Mountain View, CA, USA). Cells were detached from the flask and the resulting pellet was resuspended in stimulation buffer (HBSS supplemented with 0.1% w/v BSA and 1 mM IBMX at 37 °C). Cells were added to a white 384-well Optiplate (Perkin Elmer, Waltham, USA) to 30,000 cells per well for HEK 293 cells and 10,000 cells per well for PC12 cells. Cells were incubated with different concentrations of test peptides (concentration range of 1 × 10^−5 to 1 × 10^−11 M in stimulation buffer) at 37 °C for 30 min. Cells were lysed with lysis buffer (1 M HEPES, 0.3% Tween-20, 1% BSA in H2O, pH 7.4). Then 5 μL acceptor-bead mix was added to each well under subdued lighting conditions, followed by 5 μL of donor-bead mix. Plates were incubated for ~12 h, slowly shaking at room temperature. After incubation, the ALPHAscreen signal was measured using an EnVision plate reader (Perkin Elmer). The standard curve consisted of cGMP in a concentration range of 1 × 10^−6 to 1 × 10^−12 M. All data points were acquired in triplicate and were analyzed using GraphPad Prism 5.0 software (GraphPad Software, Inc., San Diego, CA, USA).
A general note: Alpha assays give light when donor and acceptor beads are brought close together.

For orientation: EC50 means the midpoint of the concentration-response curve. `CC[C@H](C)[C@H](NC(=O)[C@H](CCCCN)NC(=O)[C@H](CO)NC(=O)[C@H](CC(=O)O)NC(=O)[C@@H](N)CO)C(=O)NCC(=O)N[C@@H](CC(N)=O)C(=O)NCC(=O)N[C@H]1CSSC[C@@H](C(=O)N[C@@H](CC(N)=O)C(=O)N[C@@H](CCCNC(=N)N)C(=O)N[C@H](C(=O)N[C@@H](CCSC)C(=O)N[C@@H](CCC(N)=O)C(=O)N[C@@H](CC(N)=O)C(=O)N2CCC[C@H]2C(=O)N2CCC[C@H]2C(=O)N[C@@H](CCCCN)C(=O)N[C@@H](CCCCN)C(=O)N[C@@H](Cc2ccccc2)C(=O)N[C@@H](CO)C(=O)NCC(=O)N[C@@H](CCC(=O)O)C(=O)O)[C@@H](C)CC)NC(=O)CNC(=O)[C@H](CC(C)C)NC(=O)CNC(=O)[C@H](CO)NC(=O)[C@H](C(C)C)NC(=O)[C@H](CO)NC(=O)CNC(=O)[C@H]([C@@H](C)CC)NC(=O)[C@H](CCCNC(=N)N)NC(=O)[C@H](CC(=O)O)NC(=O)[C@H](CC(C)C)NC(=O)[C@@H]2CCCN2C(=O)[C@H](Cc2ccccc2)NC(=O)CNC(=O)[C@H](Cc2ccccc2)NC1=O` [TNPc] (H-SDSKIGNGCFGFPLDRIGSVSGLGCNRIMQNPPKKFSGE-OH; disulfide 9-25): the Emax at 10 µM (HEK293, read-out: cGMP production, % of the maximum response (compared with DNP, hANP, hBNP), at 10 μM) is around 30%. Also, the concentration for a half-maximal effect (EC50) (30 min at 37 °C, cGMP ALPHAscreen, three separate experiments in triplicate, read-out: hNPR-A EC50 (95% CI), potency to stimulate cGMP production) was above 10 µM.
